In patent US10227327B2, “Inhibitors of metallo-beta-lactamase (MBL) comprising a zinc chelating moiety” (Universitetet I Oslo, priority 2013, dated 2019):

Legend:
Assay in all cases: Microbroth dilution, meropenem MIC with/without compound
Format in all cases: cell-based
[1] = tested on: E. coli 50639799 (VIM-1); conditions: compound at 125 μM; 50639799 E. coli VIM-1
Protocol: (§1) General Protocol for Microbroth Dilution Method for Evaluating Antibacterial Activity of Compounds or Synergistic Effect of Compound-Antibiotic Combination
(§2) • Plate bacterial strain(s) on appropriate media: • Gram-negative bacteria with ESBLs or carbapenemases: green agar plates with 100 mg/L ampicillin • Gram-negative bacteria without β-lactamases: green agar plates • Gram-positive bacteria (Staphylococci and Enterococci): blood agar plates • Incubate o.n. at 37° C. Day 2: Prepare the Bacterial Inoculum: • Prepare a 0.5 McFarland suspension of bacteria in 0.85% NaCl. (Should be used within 15 min of preparation). • Dilute the 0.5 McFarland suspension 1:100 into MH broth. Check the inoculum by diluting the prepared bacterial suspension 1:100 (10 μl bacterial suspension+990 μl 0.85% NaCl). Plate 10 μl of the dilution on MH agar plates (×2). Incubate o.n. at 37° C., count the colonies and calculate the final CFU/ml inoculum in the plate by multiplying the average number of colonies with 10000 and divide by 2. The final inoculum should be between 3-7×10^5 CFU/ml. • Add 50 μl of the prepared bacterial suspension to each well in the microtiter plate except negative growth control. Preparation of Compounds/Antibiotics • Calculate the desired concentration-range and volume of the compounds/antibiotics in the assay. […] Dilute the stock solution in MH broth. Make subsequent 2-fold dilutions in MH broth of the desired concentrations if a concentration range is to be tested (remember the extra dilution factor in the assay plate). Always include extra volume for pipetting. Take into consideration stock solutions that are made in buffers that have an effect on bacterial growth (e.g. DMSO). Assay: • Determining the MIC of compounds/antibiotics alone: • Add 25 μl of each concentration of compound/antibiotic to row 2-11 (highest concentration in row 2) • Add 25 μl MH broth to row 2-11 • Add 50 μl MH broth to row 12 (positive control) • Add 100 μl MH broth to row 1 • Add 50 μl bacterial suspension to row 2-12. • Determining the MIC of antibiotics+compounds: • Add 25 μl of each concentration of antibiotic to row 2-11 (highest concentration in row 2) • Add 25 μl of compound to row 2-11 • Add 50 μl MH broth to row 12 (positive control) • Add 100 μl MH broth to row 1 • Add 50 μl bacterial suspension to row 2-12. • Incubate the plate for 20 hrs at 37° C. and determine the MIC in the presence and absence of inhibitor.

[2] = tested on: E. coli K71-77 (NDM-1); conditions: compound at 125 μM; K71-77 E. coli NDM-1
Protocol: as §1, §2

[3] = tested on: K. pneumoniae A3-81 (VIM-1); conditions: compound at 125 μM; A3-81 K. pneumoniae VIM-1
Protocol: as §1, §2

[4] = tested on: K. pneumoniae K66-45 (NDM-1); conditions: compound at 125 μM; K66-45 K. pneumoniae NDM-1
Protocol: as §1, §2

[5] = tested on: P. aeruginosa 50692172 (NDM-1); conditions: compound at 125 μM; 50692172 P. aeruginosa NDM-1
Protocol: as §1, §2

[6] = tested on: P. aeruginosa K34-7 (VIM-2); conditions: compound at 125 μM; K34-7 P. aeruginosa VIM-2
Protocol: as §1, §2

- Meropenem MIC (mg/L) in presence of compound [1]: 16 mg/L
- Meropenem MIC (mg/L) in presence of compound [2]: 2 to 4 mg/L
- Meropenem MIC (mg/L) in presence of compound [3]: 64 to 128 mg/L
- Meropenem MIC (mg/L) in presence of compound [4]: 64 mg/L
- Meropenem MIC (mg/L) in presence of compound [5]: 32 to 64 mg/L
- Meropenem MIC (mg/L) in presence of compound [6]: 32 mg/L
SMILES: C[C@H](CS)C(=O)N1CCC[C@H]1C(=O)O [Captopril]
